Consider 15 molecules from patent US3937809A, “Addition compound of a nucleotide and an amino acid and the use thereof in protection against actinic radiation” (priority 1974, dated 1976).

Data set [1] is described as follows: Solubility in water at 20°C (Table 3). In kind it is physicochemical.
Data set [2] can be described thus: UV absorption in % at 300, 280 and 240 nm (Table 2). The data set is classed as physicochemical. The source says:
The following Table illustrates the ultraviolet absorption characteristics at wave lengths of 300 nm, 280 nm, and 240 nm for the compounds of the invention, as well as other known compounds which have been used in the past as sun protective agents.

Data set [3] can be described thus: UV spectrum and extinction coefficients in water (Table I). The data set is classed as physicochemical.
The nature of a further data set: pH of solution (Table I). The data set is classed as physicochemical. The following applies: c=0.005. The source says:
The following Table 1 lists additional compounds of the invention along with their physical properties.
Molecular Brutto N(%) pH UV- Extinction coefficients

The conditions of data set [4]: background statement; cited from earlier work.

Converted amounts (≈) assume the structure as drawn.

As usually defined, the solubility is the dissolved amount per volume that the medium holds. A high value points to much dissolved substance. In data set [1], `Nc1ncnc2nc[nH]c12` [Adenine] returned a solubility of 0.84 mg/mL (≈ 6.22 mM). Moreover, in data set [2], the “UV Absorption in %, 240 nm” value came out at 100%; the “UV Absorption in %, 280 nm” value stood at 52%; the “UV Absorption in %, 300 nm” value was determined as 14%.

With `Nc1ccc(C(=O)O)c(O)c1` [4-Aminosalicylic acid], in data set [2], the “UV Absorption in %, 240 nm” value is listed as 98.5%; the “UV Absorption in %, 280 nm” value turned out to be 99%; the “UV Absorption in %, 300 nm” value worked out at 99%.

As for `Nc1cc[nH]c(=O)n1` [Cytosine], the concentration in solution in data set [1] (solubility) came to 4 mg/mL (≈ 36 mM). For the same molecule, in data set [2], the “UV Absorption in %, 240 nm” value came out at 100%; the “UV Absorption in %, 280 nm” value turned out to be 98%; the “UV Absorption in %, 300 nm” value is recorded as 95%.

With `Nc1ncnc2c1ncn2[C@@H]1O[C@H](COP(=O)(O)O)[C@@H](O)[C@H]1O` [Adenosine-5'-monophosphoric acid-Na2], in data set [2], the “UV Absorption in %, 240 nm” value was determined as 80%; the “UV Absorption in %, 280 nm” value came to 8%; the “UV Absorption in %, 300 nm” value is reported as 6%.

“Adenosine-5'-mono-phosphoric acid-(Na-tryptophane)2 [No. 5]”: the “UV-spectrum λmax” value in data set [3] was 220 mμ. Moreover, the “mol.Ext.coeff. ε” value in data set [3] (c=0.005, d-l) is 320000±4%. Moreover, in data set [3] (c=0.005, d-l, ratio), the “Extinction coefficients E250/E260” value was found to be 0.76, the “Extinction coefficients E280/E260” value was 0.67 and the “Extinction coefficients E290/E260” value amounted to 0.33. This molecule registered a pH in the data set “pH of solution (Table I)” of 7.0.

For `Nc1ccn([C@@H]2O[C@H](COP(=O)(O)O)[C@@H](O)[C@H]2O)c(=O)n1` [Cytidine-5'-monophosphoric acid-Na2], in data set [2], the “UV Absorption in %, 240 nm” value was 86%; the “UV Absorption in %, 280 nm” value is 88%; the “UV Absorption in %, 300 nm” value is listed as 3%.

Take “Cytidine-5'-monophosphoric acid-(o-aminobenzoic acid)2 Na2”: in data set [2], the “UV Absorption in %, 240 nm” value came to 98%; the “UV Absorption in %, 280 nm” value turned out to be 79%; the “UV Absorption in %, 300 nm” value is 55.5%.

In the case of `Nc1ccc(C(=O)O)cc1` [p-Aminobenzoic acid], the “ultraviolet absorption of known agents (in words)” value in data set [4] is “insufficient absorption in the ultraviolet portion of the spectrum”. In data set [2], the “UV Absorption in %, 240 nm” value was found to be 91%; the “UV Absorption in %, 280 nm” value turned out to be 100%; the “UV Absorption in %, 300 nm” value stood at 100%.

Turning to `Nc1cc(C(=O)O)c(O)c(S(=O)(=O)O)c1` [5-Amino-3-sulfosalicylic acid-Na2], in data set [2], the “UV Absorption in %, 240 nm” value was 87%; the “UV Absorption in %, 280 nm” value turned out to be 0%; the “UV Absorption in %, 300 nm” value stood at 26%.

For the molecule `O=c1ccn([C@@H]2O[C@H](COP(=O)(O)O)[C@@H](O)[C@H]2O)c(=O)[nH]1` [Uridine-5'-monophosphoric acid-Na2], in data set [2], the “UV Absorption in %, 240 nm” value is given as 70%; the “UV Absorption in %, 280 nm” value is reported as 55%; the “UV Absorption in %, 300 nm” value stood at 0%.

For `O=C(O)c1ccccc1O` [Salicylic acid], in data set [2], the “UV Absorption in %, 240 nm” value was found to be 98%; the “UV Absorption in %, 280 nm” value is reported as 74%; the “UV Absorption in %, 300 nm” value is recorded as 94%.

As to `O=c1[nH]cnc2nc[nH]c12` [Hypoxanthine], in data set [2], the “UV Absorption in %, 240 nm” value came out at 100%; the “UV Absorption in %, 280 nm” value is 65%; the “UV Absorption in %, 300 nm” value came to 6%.

Regarding `Nc1ccccc1C(=O)O` [Anthranilic acid(o-Aminobenzoic acid), o-Aminobenzoic acid], in data set [2], the “UV Absorption in %, 240 nm” value was 99%; the “UV Absorption in %, 280 nm” value is 48%; the “UV Absorption in %, 300 nm” value was determined as 84%.

For the molecule `O=c1cc[nH]c(=O)[nH]1` [Uracil], the concentration in solution in data set [1] (solubility) was 2 mg/mL (≈ 17.8 mM). In data set [2], the “UV Absorption in %, 240 nm” value was 90%; the “UV Absorption in %, 280 nm” value amounted to 45%; the “UV Absorption in %, 300 nm” value is reported as 42%.

In the case of `Nc1nc2nc[nH]c2c(=O)[nH]1` [Guanine], in data set [2], the “UV Absorption in %, 240 nm” value was found to be 73%; the “UV Absorption in %, 280 nm” value is 62%; the “UV Absorption in %, 300 nm” value came to 11%.
